Experimental data taken from ChEMBL document CHEMBL4261608, “Design, synthesis and anti-mycobacterial activity evaluation of benzofuran-isatin hybrids” (Eur J Med Chem, 2018).

System: Mycobacterium tuberculosis
Assay: Antimycobacterial activity against ethambutol/isoniazid/rifampicin-resistant Mycobacterium tuberculosis incubated for 7 days by rapid direct susceptibility test
Format: functional
Details: 168 h

NNC(=O)c1ccncc1 [ISONIAZID]
MIC: > 128 µg/mL
